The assay deals with T1, N-type calcium channel (Human Cav2.2 channels) (Homo sapiens, UniProt Q00975).
T1 construct: expressed in transfected cells
Description: N-type calcium channel (Cav2.2) antagonist assays: fluorescent potassium depolarization assay, IonWorks and PatchXpress/manual patch clamp electrophysiology. The format is cell-based. The settings on record: in the aforementioned assays (Assay Examples 1-3); the specific assay is not stated; read-out: IC50, antagonizing the N-type calcium channel. From the text:
Fluorescent Assay for Cav2.2 Channels using Potassium Depolarization to Initiate Channel Opening
Human Cav2.2 channels were stably expressed in KEK293 cells along with alpha2-delta and beta subunits of voltage-gated calcium channels. An inwardly rectifying potassium channel (Kir2.3) was also expressed in these cells to allow more precise control of the cell membrane potential by extracellular potassium concentration. At low bath potassium concentration, the membrane potential is relatively negative, and is depolarized as the bath potassium concentration is raised. In this way, the bath potassium concentration can be used to regulate the voltage-dependent conformations of the channels. […]
Calcium influx through Cav2.2 channels is determined using a calcium-sensitive fluorescent dye in combination with a fluorescent plate reader. Fluorescent changes were measured with either a VIPR (Aurora Instruments) or FLIPR (Molecular Devices) plate reader.
• 1. […] Read cell plate on VIPR instrument, Excitation=480 nm, Emission=535 nm • 9. With VIPR continuously reading, add 0.1 mL (96-well plate) or 0.03 mL (384-well plate) of Depolarization Buffer, which is 2× the final assay concentration, to the cell plate. […]
Block of N-type calcium channels is evaluated utilizing the IonWorks HT 384 well automated patch clamp electrophysiology device. […]
For orientation: The patch-clamp technique gives a direct electrical read-out from membranes.

T1 sequence (Q00975 whole entry): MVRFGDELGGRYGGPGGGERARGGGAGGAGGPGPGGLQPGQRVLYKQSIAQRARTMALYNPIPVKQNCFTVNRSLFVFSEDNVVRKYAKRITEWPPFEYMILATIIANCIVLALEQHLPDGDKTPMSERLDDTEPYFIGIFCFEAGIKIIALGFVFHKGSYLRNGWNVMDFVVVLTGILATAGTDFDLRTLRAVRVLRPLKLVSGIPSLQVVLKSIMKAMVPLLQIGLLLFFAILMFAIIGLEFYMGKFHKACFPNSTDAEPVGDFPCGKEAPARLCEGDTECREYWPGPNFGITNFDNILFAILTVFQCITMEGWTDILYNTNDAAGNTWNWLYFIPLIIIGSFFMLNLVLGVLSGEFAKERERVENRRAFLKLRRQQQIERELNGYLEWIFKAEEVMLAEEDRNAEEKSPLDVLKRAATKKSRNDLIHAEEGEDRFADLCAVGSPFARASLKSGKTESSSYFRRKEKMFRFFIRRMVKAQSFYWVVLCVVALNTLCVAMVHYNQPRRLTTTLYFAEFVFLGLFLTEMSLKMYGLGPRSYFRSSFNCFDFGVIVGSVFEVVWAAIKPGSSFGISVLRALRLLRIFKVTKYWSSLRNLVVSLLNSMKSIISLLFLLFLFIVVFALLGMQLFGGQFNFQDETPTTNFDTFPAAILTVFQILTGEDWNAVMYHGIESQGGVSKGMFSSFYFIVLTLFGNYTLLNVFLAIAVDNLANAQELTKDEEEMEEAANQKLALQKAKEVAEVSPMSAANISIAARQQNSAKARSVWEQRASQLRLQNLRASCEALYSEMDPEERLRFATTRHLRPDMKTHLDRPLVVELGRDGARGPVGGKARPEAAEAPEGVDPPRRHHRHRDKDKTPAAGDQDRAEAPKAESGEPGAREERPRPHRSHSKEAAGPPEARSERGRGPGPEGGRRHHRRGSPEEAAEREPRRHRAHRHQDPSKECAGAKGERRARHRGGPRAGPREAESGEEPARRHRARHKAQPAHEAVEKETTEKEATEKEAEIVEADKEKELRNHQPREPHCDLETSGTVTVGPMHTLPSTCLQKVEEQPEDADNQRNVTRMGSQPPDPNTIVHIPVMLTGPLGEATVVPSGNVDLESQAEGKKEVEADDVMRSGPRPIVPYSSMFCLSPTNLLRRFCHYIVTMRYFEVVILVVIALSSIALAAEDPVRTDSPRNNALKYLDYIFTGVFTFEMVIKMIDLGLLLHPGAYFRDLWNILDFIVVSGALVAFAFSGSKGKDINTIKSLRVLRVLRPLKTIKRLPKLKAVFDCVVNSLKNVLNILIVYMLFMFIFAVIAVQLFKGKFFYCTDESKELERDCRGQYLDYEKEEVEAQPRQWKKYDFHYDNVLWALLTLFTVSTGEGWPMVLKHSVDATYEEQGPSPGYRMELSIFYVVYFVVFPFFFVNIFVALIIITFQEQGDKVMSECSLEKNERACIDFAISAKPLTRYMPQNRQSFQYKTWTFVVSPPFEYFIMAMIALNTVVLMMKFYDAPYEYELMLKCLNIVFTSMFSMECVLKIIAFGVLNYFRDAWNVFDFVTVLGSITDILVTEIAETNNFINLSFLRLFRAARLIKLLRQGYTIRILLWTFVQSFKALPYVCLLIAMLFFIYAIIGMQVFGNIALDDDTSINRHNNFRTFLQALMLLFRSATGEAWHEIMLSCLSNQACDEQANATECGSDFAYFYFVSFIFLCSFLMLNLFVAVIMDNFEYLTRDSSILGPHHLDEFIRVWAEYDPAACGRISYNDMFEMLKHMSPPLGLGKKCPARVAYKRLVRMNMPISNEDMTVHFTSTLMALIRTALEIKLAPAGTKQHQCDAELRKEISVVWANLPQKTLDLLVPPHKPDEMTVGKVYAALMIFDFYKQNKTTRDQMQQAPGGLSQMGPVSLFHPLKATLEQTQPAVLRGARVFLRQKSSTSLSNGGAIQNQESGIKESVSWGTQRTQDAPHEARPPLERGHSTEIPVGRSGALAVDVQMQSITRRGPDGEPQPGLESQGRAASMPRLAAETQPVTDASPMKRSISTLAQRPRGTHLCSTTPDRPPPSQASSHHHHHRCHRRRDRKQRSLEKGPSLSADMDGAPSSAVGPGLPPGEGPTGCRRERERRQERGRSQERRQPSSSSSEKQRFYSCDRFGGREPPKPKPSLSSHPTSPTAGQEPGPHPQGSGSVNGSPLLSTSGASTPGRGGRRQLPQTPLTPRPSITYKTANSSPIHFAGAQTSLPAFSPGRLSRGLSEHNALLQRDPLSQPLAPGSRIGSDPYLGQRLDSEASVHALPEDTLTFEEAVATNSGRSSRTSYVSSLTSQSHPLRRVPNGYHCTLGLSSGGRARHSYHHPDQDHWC

For the compound `CC1(Cc2cc(F)cc(F)c2)C(=O)Nc2ccc(-c3ccc(F)cc3)cc21` (centres unmarked) [Example 12, 3-(3,5-difluorobenzyl)-5-(4-fluorophenyl)-3-methyl-1,3-dihydro-2H-indol-2-one], the half-maximal inhibitory concentration (IC50) (in general, the concentration at which inhibition is half-maximal) worked out at 590 nM.

`CC1(Cc2cncnc2)C(=O)Nc2ccc(-c3cccc(OCC(F)(F)F)c3)cc21` (centres unmarked) [Example 15, 3-methyl-3-(pyrimidin-5-ylmethyl)-5-[3-(2,2,2-trifluoroethoxy)phenyl]-1,3-dihydro-2H-indol-2-one]: the IC50 stood at 140 nM.

For the origin of these results see patent US20100204247A1, “N-SUBSTITUTED OXINDOLINE DERIVATIVES AS CALCIUM CHANNEL BLOCKERS” (priority 2007, published 2010).
